Experiments:
AHR = target: T1, AHR (UniProt P35869); assay: DRE-Luciferase Reporter Assay (Alternate Method) (Example 1B); format: cell-based, murine or human; conditions: cell line and AHR activating ligand not specified
T1 construct: IC50
T1 sequence (P35869 1-848): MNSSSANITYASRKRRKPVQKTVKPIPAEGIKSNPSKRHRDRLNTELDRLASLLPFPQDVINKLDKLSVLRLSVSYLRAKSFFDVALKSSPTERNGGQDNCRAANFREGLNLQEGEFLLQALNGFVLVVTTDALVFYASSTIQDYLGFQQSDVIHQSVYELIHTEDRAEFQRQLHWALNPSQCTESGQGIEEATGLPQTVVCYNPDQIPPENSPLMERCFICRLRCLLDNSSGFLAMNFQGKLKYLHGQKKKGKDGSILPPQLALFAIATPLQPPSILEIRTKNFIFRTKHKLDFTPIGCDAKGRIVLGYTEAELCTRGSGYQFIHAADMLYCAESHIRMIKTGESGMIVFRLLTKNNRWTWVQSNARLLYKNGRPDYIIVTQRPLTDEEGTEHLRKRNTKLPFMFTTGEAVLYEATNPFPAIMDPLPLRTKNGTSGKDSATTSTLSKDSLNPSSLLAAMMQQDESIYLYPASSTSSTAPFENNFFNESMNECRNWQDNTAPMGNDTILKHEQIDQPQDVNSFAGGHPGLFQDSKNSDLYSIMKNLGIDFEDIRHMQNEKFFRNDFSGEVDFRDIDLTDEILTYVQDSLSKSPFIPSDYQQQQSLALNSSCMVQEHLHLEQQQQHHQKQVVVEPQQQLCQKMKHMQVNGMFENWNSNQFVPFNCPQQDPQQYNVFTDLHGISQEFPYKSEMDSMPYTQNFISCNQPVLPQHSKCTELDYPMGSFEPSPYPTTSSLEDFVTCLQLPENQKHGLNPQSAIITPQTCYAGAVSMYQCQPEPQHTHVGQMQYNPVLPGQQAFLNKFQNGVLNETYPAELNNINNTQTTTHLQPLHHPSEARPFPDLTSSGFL

[1] = Mouse Pharmacokinetic Study (Example 1C); format: in vivo; conditions: mouse, plasma, CD-1 mice; for Vd: read-out: Vdss
Protocol: Formulations of compounds set forth in Table 4 were administered intravenously or orally via gavage to CD-1 mice. Typically, at 0.167, 0.5, 1, 2, 4, 6, 12, and 24 hours post-dose, blood was collected and processed to plasma by centrifugation and stored at −80° C. until analysis.
Internal standard was added to each sample prior to protein precipitation with acetonitrile. The precipitates were filtered through a Phree phospholipid removal filter plate and the samples were analyzed by LC/MS/MS. A standard curve was prepared in plasma from typically from 1.0 ng/mL to 3000 ng/mL and processed in the same manner as the samples. Sample analysis was typically performed on a suitable LC/MS/MS system fitted with an analytical UPLC column and compounds eluted from the analytical column with a gradient from 30-95% 0.1% formic acid (v/v) in ACN: 0.1% formic acid (v/v) in water. Mass spectrometric detection of test compound and the internal standard was performed by MRM in positive mode. The pharmacokinetics of each compound were analyzed by Phoenix WinNonlin software (Pharsight, St. Louis, Mo.) via non-compartmental analysis.

[2] = In Vitro Mouse liver S9 Metabolic Stability Assay (Example 1D); format: in vitro ADME; conditions: CD-1 mouse liver S9, 1 μM compound, 1 mg/mL S9 protein, 37° C., NADPH regenerating system, UDPGA, PAPS
Procedure, shortened: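 Compound at 1 μM final (0.1% DMSO) incubated at 37° C with pooled CD-1 mouse liver S9 (1 mg/mL protein) plus NADPH-regenerating system, UDPGA and PAPS. Samples at 0 and 60 min quenched in cold acetonitrile with internal standard; LC-MS/MS analyte/IS peak-area ratios give % remaining at 60 min.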

Row | SMILES | IC50 (AHR) | bioavailability ([1]; po, 30 mg/kg) | AUC(0-inf) ([1]; iv, 3 mg/kg) | AUC(0-t) ([1]; iv, 3 mg/kg) | clearance ([1]; iv, 3 mg/kg) | half-life ([1]; iv, 3 mg/kg) | Vd ([1]; iv, 3 mg/kg) | AUC(0-inf) ([1]; po, 30 mg/kg) | AUC(0-t) ([1]; po, 30 mg/kg) | Cmax ([1]; po, 30 mg/kg) | Tmax ([1]; po, 30 mg/kg) | half-life ([1]; po, 30 mg/kg) | Mouse S9 Stability: % Remaining After 60 Minutes [2]
1 | C[C@@H](O)c1cnn2c(N[C@@H]3CCc4[nH]c5ccccc5c4C3)cc(-c3cncc(F)c3)nc12 [I-198a, (1R)-1-[5-(5-Fluoro-3-pyridyl)-7-[[(3R)-2,3,4,9-tetrahydro-1H-carbazol-3-yl]amino]pyrazolo[1,5-a]pyrimidin-3-yl]ethanol] | < 500 nM | 52% | 772 ng·h/mL | 765 ng·h/mL | 64.8 mL/min/kg | 4.3 h | 12.1 L/kg | 4050 ng·h/mL | 3960 ng·h/mL | 721 ng/mL | 1 h | 4.2 h | 30%
2 | CN(C)c1cnn2c(NCCc3c[nH]c4ccccc34)cc(-c3cncc(F)c3)nc12 [I-203, 5-(5-fluoro-3-pyridyl)-N7-[2-(1H-indol-3-yl)ethyl]-N3,N3-dimethyl-pyrazolo[1,5-a]pyrimidine-3,7-diamine] | < 500 nM | 12% | 565 ng·h/mL | 555 ng·h/mL | 88.5 mL/min/kg | 2.3 h | 5.8 L/kg | 657 ng·h/mL | 656 ng·h/mL | 604 ng/mL | 0.2 h | 0.7 h | 0%
3 | CN(C)c1cnn2c(N[C@H]3Cc4ccc(O)cc4C3)cc(-c3cncc(F)c3)nc12 [I-204b, (2S)-2-[[3-(dimethylamino)-5-(5-fluoro-3-pyridyl)pyrazolo[1,5-a]pyrimidin-7-yl]amino]indan-5-ol] | < 500 nM | 2% | 455 ng·h/mL | 454 ng·h/mL | 110 mL/min/kg | 0.9 h | 4 L/kg | 67 ng·h/mL | 63 ng·h/mL | 55 ng/mL | 0.2 h | 3.2 h | 0%
4 | Cc1cnn2c(N[C@H]3Cc4ccc(O)cc4C3)cc(-c3cncc(F)c3)nc12 [I-219, (2S)-2-[[5-(5-fluoro-3-pyridyl)-3-methyl-pyrazolo[1,5-a]pyrimidin-7-yl]amino]indan-5-ol] | < 500 nM | 2% | 682 ng·h/mL | 678 ng·h/mL | 73.3 mL/min/kg | 0.7 h | 2.4 L/kg | 215 ng·h/mL | 132 ng·h/mL | 48.9 ng/mL | 0.2 h | – | 5%
5 | C[C@@H](O)c1cnn2c(NCCc3c[nH]c4ccccc34)cc(-c3cncc(F)c3)nc12 [I-222a, (1R)-1-[5-(5-Fluoro-3-pyridyl)-7-[2-(1H-indol-3-yl)ethylamino]pyrazolo[1,5-a]pyrimidin-3-yl]ethanol] | < 500 nM | 16% | 1330 ng·h/mL | 1330 ng·h/mL | 36.9 mL/min/kg | 2.4 h | 1.5 L/kg | 2240 ng·h/mL | 2230 ng·h/mL | 2870 ng/mL | 0.2 h | 1.7 h | 1%
6 | C[C@H](O)c1cnn2c(NCCc3c[nH]c4ccccc34)cc(-c3cncc(F)c3)nc12 [I-222b, (1S)-1-[5-(5-Fluoro-3-pyridyl)-7-[2-(1H-indol-3-yl)ethylamino]pyrazolo[1,5-a]pyrimidin-3-yl]ethanol] | < 500 nM | 51% | 567 ng·h/mL | 564 ng·h/mL | 88.1 mL/min/kg | 1.8 h | 2 L/kg | 2870 ng·h/mL | 2860 ng·h/mL | 2170 ng/mL | 0.2 h | 3.3 h | 0%

Reference: patent publication US11358969B2, “Indole AHR inhibitors and uses thereof” (Ikena Oncology, Inc., priority 2017, dated 2022)
